Reference: patent US20240228489A1, “POSITIVE ALLOSTERIC MODULATORS OF THE MUSCARINIC ACETYLCHOLINE RECEPTOR M1” (Vanderbilt University, priority 2021, published 2024)

Experiments:
human mAChR M1 [1] = biological target: T1, human mAChR M1 (Homo sapiens, UniProt P11229); assay: mAChR M1 cell-based functional assay (calcium mobilization), PAM mode: increase in the EC20 acetylcholine response
T1 sequence (P11229 1-460): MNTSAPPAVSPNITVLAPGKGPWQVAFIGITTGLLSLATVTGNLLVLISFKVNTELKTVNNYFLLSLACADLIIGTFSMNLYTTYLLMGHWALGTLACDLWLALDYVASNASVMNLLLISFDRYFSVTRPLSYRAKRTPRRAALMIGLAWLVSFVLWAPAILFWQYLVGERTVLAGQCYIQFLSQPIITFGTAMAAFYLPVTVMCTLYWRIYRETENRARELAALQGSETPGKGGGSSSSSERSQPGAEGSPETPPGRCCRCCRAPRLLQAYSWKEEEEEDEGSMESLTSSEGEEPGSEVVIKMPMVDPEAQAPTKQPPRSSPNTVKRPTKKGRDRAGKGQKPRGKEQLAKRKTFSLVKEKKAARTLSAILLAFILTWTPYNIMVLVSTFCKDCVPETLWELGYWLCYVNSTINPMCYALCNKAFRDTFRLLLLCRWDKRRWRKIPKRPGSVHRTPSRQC
Outline: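 CHO-K1 cells stably expressing hM1, Fluo-4 loaded, read by FDSS calcium flux at 1 Hz. Compound (11-point 1:3 CRC) added at 4 s, EC20 acetylcholine at 144 s, EC80 at 230 s. PAM activity taken as concentration-dependent increase in EC20 ACh response, fitted by four-parameter logistic for EC50/Emax.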

human mAChR M1 [2] = biological target: T1, human mAChR M1; assay: mAChR M1 cell-based functional assay (calcium mobilization), agonist mode: compound alone, Emax relative to acetylcholine maximum; settings: for Agonist Activity Human M1 EC50 / EC50: human mAChR M1
Outline: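 CHO-K1 cells stably expressing hM1 were loaded with Fluo-4 AM, and calcium flux was read as fluorescence ratio. Compound was added alone from an 11-point 1:3 curve, and the agonist response was fitted with a four-parameter logistic. Emax is expressed relative to the acetylcholine maximum.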

[3] = relative to the maximum for acetylcholine

EC50 (human mAChR M1 [1]) [nM]	Emax (human mAChR M1 [1]) [%]	Agonist Activity Human M1 EC50 (human mAChR M1 [2])	Emax (human mAChR M1 [2]; [3]) [%]	EC50 (human mAChR M1 [2]) [µM]	PAM Activity Emax (human mAChR M1 [1]) [%]	Agonist Activity Emax (human mAChR M1 [2]; [3]) [%]	Compound
1220	65	Inactive	2	–	–	–	[2H]C1([2H])c2ncccc2C(=O)N1Cc1c(F)cc(-c2ccc(C)c3c2cnn3C([2H])([2H])[2H])cc1F [Compound 70, 6-(2,6-difluoro-4-(7-methyl-1-(methyl-d3)-1H-indazol-4-yl)benzyl)-6,7-dihydro-5H-pyrrolo[3,4-b]pyridin-5-one-7,7-d2]
1170	69	Inactive	2	–	–	–	[2H]C1([2H])c2ncccc2C(=O)N1Cc1c(F)cc(-c2ccc(OC(F)(F)F)c3nn(C([2H])([2H])[2H])cc23)cc1F [Compound 104, 6-(2,6-difluoro-4-(2-(methyl-d3)-7-(trifluoromethoxy)-2H-indazol-4-yl)benzyl)-6,7-dihydro-5H-pyrrolo[3,4-b]pyridin-5-one-7,7-d2]
119	84	–	37	7.52	–	–	[2H]C1([2H])c2ncccc2C(=O)N1Cc1c(F)cc(-c2cccc3nn(C([2H])([2H])[2H])cc23)cc1C1CC1 [Compound 190, 6-(2-Cyclopropyl-6-fluoro-4-(2-(methyl-d3)-2H-indazol-4-yl)benzyl)-6,7-dihydro-5H-pyrrolo[3,4-b]pyridin-5-one-7,7-d2]
1700	72	Inactive	2	–	–	–	[2H]C1([2H])c2ncccc2C(=O)N1Cc1c(F)cc(-c2cc(OC)cc3nn(C)cc23)cc1F [Compound 90, 6-(2,6-difluoro-4-(6-methoxy-2-methyl-2H-indazol-4-yl)benzyl)-6,7-dihydro-5H-pyrrolo[3,4-b]pyridin-5-one-7,7-d2]
195	27	Inactive	2	–	–	–	[2H]C1([2H])c2ncccc2C(=O)N1Cc1c(F)cc(-c2cc(F)c(F)c3nn(C)cc23)cc1F [Compound 105, 6-(4-(6,7-difluoro-2-methyl-2H-indazol-4-yl)-2,6-difluorobenzyl)-6,7-dihydro-5H-pyrrolo[3,4-b]pyridin-5-one-7,7-d2]
643	93	–	16	≥ 10	–	–	[2H]C1([2H])c2ncccc2C(=O)N1Cc1c(F)cc(-c2ccnc3nn(C)cc23)cc1Cl [Compound 165, 6-(2-chloro-6-fluoro-4-(2-methyl-2H-pyrazolo[3,4-b]pyridin-4-yl)benzyl)-6,7-dihydro-5H-pyrrolo[3,4-b]pyridin-5-one-7,7-d2]
900	63	Inactive	1	–	–	–	[2H]C1([2H])c2ncccc2C(=O)N1Cc1c(Cl)cc(-c2cccc3nn(C)cc23)cc1Cl [Compound 227, 6-(2,6-dichloro-4-(2-methyl-2H-indazol-4-yl)benzyl)-6,7-dihydro-5H-pyrrolo[3,4-b]pyridin-5-one-7,7-d2]
1350	–	Inactive	–	–	47	1	[2H]C1([2H])c2ncccc2C(=O)N1Cc1c(F)cc(-c2cc(F)c(Cl)c3nn(C)cc23)cc1F [Compound 77, 6-(4-(7-chloro-6-fluoro-2-methyl-2H-indazol-4-yl)-2,6-difluorobenzyl)-6,7-dihydro-5H-pyrrolo[3,4-b]pyridin-5-one-7,7-d2]
58	78	–	29	3.74	–	–	[2H]C1([2H])c2ncccc2C(=O)N1Cc1c(F)cc(-c2cc(OC)c3nn(C)cc3c2)cc1F [Compound 76, 6-(2,6-difluoro-4-(7-methoxy-2-methyl-2H-indazol-5-yl)benzyl)-6,7-dihydro-5H-pyrrolo[3,4-b]pyridin-5-one-7,7-d2]
6800	77	Inactive	2	–	–	–	[2H]C1([2H])c2ncccc2C(=O)N1Cc1ccc(-c2ccc3cn(C)nc3c2)cc1 [Compound 14, 6-(4-(2-methyl-2H-indazol-6-yl)benzyl)-6,7-dihydro-5H-pyrrolo[3,4-b]pyridin-5-one-7,7-d2]
2230	59	Inactive	1	–	–	–	[2H]C1([2H])c2ncccc2C(=O)N1Cc1c(F)cc(-c2cn(C)c(=O)c3c2cnn3C)cc1F [Compound 80, 4-(3,5-difluoro-4-((5-oxo-5,7-dihydro-6H-pyrrolo[3,4-b]pyridin-6-yl-7,7-d2)methyl)phenyl)-1,6-dimethyl-1,6-dihydro-7H-pyrazolo[3,4-c]pyridin-7-one]
332	83	–	43	5.2	–	–	[2H]C1([2H])c2ncccc2C(=O)N1Cc1c(C)cc(-c2ccnc3nn(C)cc23)cc1F [Compound 201, 6-(2-fluoro-6-methyl-4-(2-methyl-2H-pyrazolo[3,4-b]pyridin-4-yl)benzyl)-6,7-dihydro-5H-pyrrolo[3,4-b]pyridin-5-one-7,7-d2]
317	85	Inactive	2	–	–	–	[2H]C1([2H])c2ncccc2C(=O)N1Cc1c(F)cc(-c2ccc(C)c3nn(C([2H])([2H])[2H])cc23)cc1F [Compound 52, 6-(2,6-difluoro-4-(7-methyl-2-(methyl-d3)-2H-indazol-4-yl)benzyl)-6,7-dihydro-5H-pyrrolo[3,4-b]pyridin-5-one-7,7-d2]
429	81	–	44	3.24	–	–	[2H]C1([2H])c2ncccc2C(=O)N1Cc1c(F)cc(-c2ccc(OC3CC3)c3nn(C)cc23)cc1C1CC1 [Compound 202, 6-(4-(7-cyclopropoxy-2-methyl-2H-indazol-4-yl)-2-cyclopropyl-6-fluorobenzyl)-6,7-dihydro-5H-pyrrolo[3,4-b]pyridin-5-one-7,7-d2]
540	81	–	31	≥ 10	–	–	[2H]C1([2H])c2ncccc2C(=O)N1Cc1c(F)cc(-c2ccc(O[C@H](C)COC)c3nn(C)cc23)cc1F [Compound 148, (R)-6-(2,6-difluoro-4-(7-((1-methoxypropan-2-yl)oxy)-2-methyl-2H-indazol-4-yl)benzyl)-6,7-dihydro-5H-pyrrolo[3,4-b]pyridin-5-one-7,7-d2]
277	79	Inactive	9	–	–	–	[2H]C1([2H])c2ncccc2C(=O)N1Cc1ccc(-c2ccc(OCC3(C#N)CC3)c3nn(C)cc23)cc1F [Compound 178, 1-(((4-(3-fluoro-4-((5-oxo-5,7-dihydro-6H-pyrrolo[3,4-b]pyridin-6-yl-7,7-d2)methyl)phenyl)-2-methyl-2H-indazol-7-yl)oxy)methyl)cyclopropane-1-carbonitrile]
≥ 10000	63	Inactive	3	–	–	–	[2H]C1([2H])c2ncccc2C(=O)N1Cc1c(F)cc(-c2cncc3nn(C)cc23)cc1F [Compound 119, 6-(2,6-difluoro-4-(2-methyl-2H-pyrazolo[3,4-c]pyridin-4-yl)benzyl)-6,7-dihydro-5H-pyrrolo[3,4-b]pyridin-5-one-7,7-d2]
≥ 10000	42	Inactive	1	–	–	–	[2H]C1([2H])c2ncccc2C(=O)N1Cc1ccc(-c2cccc3nn(C([2H])([2H])[2H])cc23)cc1C(C)C [Compound 234, 6-(2-isopropyl-4-(2-(methyl-d3)-2H-indazol-4-yl)benzyl)-6,7-dihydro-5H-pyrrolo[3,4-b]pyridin-5-one-7,7-d2]
140	30	Inactive	2	–	–	–	[2H]C1([2H])c2ncccc2C(=O)N1Cc1c(F)cc(-c2cc(F)c(F)c3nn(C([2H])([2H])[2H])cc23)cc1F [Compound 106, 6-(4-(6,7-difluoro-2-(methyl-d3)-2H-indazol-4-yl)-2,6-difluorobenzyl)-6,7-dihydro-5H-pyrrolo[3,4-b]pyridin-5-one-7,7-d2]
411	73	Inactive	2	–	–	–	[2H]C1([2H])c2ncccc2C(=O)N1Cc1c(F)cc(-c2ccc(F)c3nn(C([2H])([2H])[2H])cc23)cc1F [Compound 45, 6-(2,6-difluoro-4-(7-fluoro-2-(methyl-d^3)-2H-indazol-4-yl)benzyl)-6,7-dihydro-5H-pyrrolo[3,4-b]pyridin-5-one-7,7-d2]

Compound	EC50 (human mAChR M1 [1]) [nM]	Emax (human mAChR M1 [1]) [%]	Agonist Activity Human M1 EC50 (human mAChR M1 [2])	Emax (human mAChR M1 [2]; [3]) [%]	EC50 (human mAChR M1 [2]) [µM]	PAM Activity Emax (human mAChR M1 [1]) [%]	Agonist Activity Emax (human mAChR M1 [2]; [3]) [%]
[2H]C1([2H])c2ncccc2C(=O)N1Cc1c(F)cc(-c2ccc(C(F)(F)F)c3nn(C)cc23)cc1OCC(C)C [Compound 216, 6-(2-fluoro-6-isobutoxy-4-(2-methyl-7-(trifluoromethyl)-2H-indazol-4-yl)benzyl)-6,7-dihydro-5H-pyrrolo[3,4-b]pyridin-5-one-7,7-d2]	3180	83	Inactive	2	–	–	–
